Read-outs that look alike come from different tables or passages of the source. One block for each compound: values may come before it.
Experiments:
[1] = target: T1, 5-lipoxygenase (Human Leukocyte/PMNL 5-LPO) (Homo sapiens, UniProt P09917); assay: Inhibition of 5-lipoxygenase (5-HETE formation) in human neutrophil/platelet system; format: cell-based; settings: for % Inhibition at 100 μm: 4-alkoxyphenyl compounds
T1 construct: Human neutrophils and platelets were obtained from the blood of normal volunteers; endogenous in cells; host or cells: human blood leukocytes (neutrophils) of normal volunteers, with 0.1 to 0.5 platelets per leukocyte
T1 sequence (P09917 1-674): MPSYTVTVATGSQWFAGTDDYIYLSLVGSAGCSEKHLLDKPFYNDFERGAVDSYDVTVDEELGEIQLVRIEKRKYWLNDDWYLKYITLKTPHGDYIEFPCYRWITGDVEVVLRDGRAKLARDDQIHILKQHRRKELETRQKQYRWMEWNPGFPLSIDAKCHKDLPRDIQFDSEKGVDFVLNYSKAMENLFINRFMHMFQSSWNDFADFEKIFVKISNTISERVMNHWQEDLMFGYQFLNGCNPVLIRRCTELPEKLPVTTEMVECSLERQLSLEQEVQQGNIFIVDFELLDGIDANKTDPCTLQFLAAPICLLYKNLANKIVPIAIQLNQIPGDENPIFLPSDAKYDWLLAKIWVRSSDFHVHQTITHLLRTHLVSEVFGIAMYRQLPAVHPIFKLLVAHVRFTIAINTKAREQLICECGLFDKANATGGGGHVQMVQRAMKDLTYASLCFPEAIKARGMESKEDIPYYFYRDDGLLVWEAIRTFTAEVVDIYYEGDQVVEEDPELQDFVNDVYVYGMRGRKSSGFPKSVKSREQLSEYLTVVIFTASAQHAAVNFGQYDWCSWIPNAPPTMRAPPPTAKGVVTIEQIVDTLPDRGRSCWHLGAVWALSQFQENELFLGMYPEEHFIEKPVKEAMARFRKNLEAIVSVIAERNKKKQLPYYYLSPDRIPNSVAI
Excerpt: This test is a measure of the inhibition of the synthesis of lipoxygenase products generated by human neutrophils and platelets. The protocol is similar to that described in the article "Comparative Effects of Indomethacin, Acetylenic Acids, 15-HETE, NDGA and BW755C on the Metabolism of Arachidonic Acid in Human Leukocytes and Platelets", H. Solari, P. Braquet and P. Borgeat, Prost. Leuk. Med. 13, pp. 53-60, 1984.
Human neutrophils and platelets were obtained from the blood of normal volunteers. The blood was collected into tubes containing EDTA as an anticoagulant. The blood was centrifuged at 250×g for 15 minutes and the platelet rich plasma was removed. The cell fraction was mixed with an equal volume of 0.9% saline containing 10 mM dextrose and resuspended in Dulbecco's phosphate buffered saline (PBS) without Mg^++ and Ca^++ and was counted. The cell suspension was adjusted to give a leukocyte count of 2-3×10^7 cells/ml.
Test compounds were dissolved in ethanol and added to polypropylene tubes. To control tubes (drug-free) only ethanol was added. The ethanol was evaporated to dryness under a stream of argon and then 0.1 ml of the cell suspension (2-3×10^6 cells) was added. This mixture was pre-incubated for 5 minutes at 37° and then the reaction was initiated by addition of ^3 H-arachidonic acid, calcium ionophore (A23187), and calcium ion. The final concentration of each component was: arachidonic acid, 10 uM; A23187, […]; calcium ion, […]. After 5 minutes the incubations were stopped by addition of an equal volume of methanol. The tubes were spun at 11,000 g for 2 minutes to pellet the precipitated protein. The supernatant was analyzed by HPLC for 5-HETE. The formation of this product is indicative of 5-lipoxygenase activity. Test drugs were evaluated for their ability to inhibit 5-HETE formation. Percent inhibition of varying concentrations of test drugs was determined in duplicate by comparing the peak quantitation in the presence and absence (control) of drug. […] The IC50 values were calculated from log-dose response curves of pooled data from at least two experiments by linear regression analysis.
The activity was tested by the same method as in the previous example.
The enzyme inhibitory activity of these compounds was tested by the same method.

[2] = target: T2, Human Platelet 12-LPO (Homo sapiens, UniProt P18054); assay: Inhibition of 12-LPO, human platelet; format: cell-based; settings: for IC50: 95% confidence interval; for inhibition at 100 µM: read-out: % I Human Platelet 12-LPO
T2 construct: Human neutrophils and platelets were obtained from the blood of normal volunteers; endogenous in cells; host or cells: human platelets from blood of normal volunteers
T2 sequence (P18054 1-663): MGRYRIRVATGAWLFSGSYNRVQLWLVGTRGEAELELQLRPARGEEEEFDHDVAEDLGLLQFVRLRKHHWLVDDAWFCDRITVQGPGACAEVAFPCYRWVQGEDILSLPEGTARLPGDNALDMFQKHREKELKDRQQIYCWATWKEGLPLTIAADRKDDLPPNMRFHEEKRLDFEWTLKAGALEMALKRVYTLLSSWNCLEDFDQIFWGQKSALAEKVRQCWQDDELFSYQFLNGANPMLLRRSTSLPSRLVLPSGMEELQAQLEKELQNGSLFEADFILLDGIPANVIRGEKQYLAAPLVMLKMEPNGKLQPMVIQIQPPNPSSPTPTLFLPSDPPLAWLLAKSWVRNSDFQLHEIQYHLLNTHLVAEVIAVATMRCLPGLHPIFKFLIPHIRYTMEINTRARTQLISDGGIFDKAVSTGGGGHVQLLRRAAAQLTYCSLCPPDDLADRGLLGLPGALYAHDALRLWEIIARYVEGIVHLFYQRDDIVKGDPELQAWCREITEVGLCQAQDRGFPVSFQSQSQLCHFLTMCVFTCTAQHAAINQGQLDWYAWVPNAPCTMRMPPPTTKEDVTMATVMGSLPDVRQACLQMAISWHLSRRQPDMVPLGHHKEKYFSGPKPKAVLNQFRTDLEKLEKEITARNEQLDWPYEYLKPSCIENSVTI

[3] = target: T3, Human Platelet CO (Homo sapiens, UniProt P23219); assay: Inhibition of CO, human platelet; format: cell-based; settings: for IC50: 95% confidence interval given for some; for inhibition at 100 µM: read-out: % I Human Platelet CO; for inhibition at 100 µM / % I Human Platelet CO: @ 100 μM
T3 construct: Human neutrophils and platelets were obtained from the blood of normal volunteers; endogenous in cells; host or cells: human platelets from blood of normal volunteers

[4] = test system: inflammatory mediators prostaglandin E2, LTB4 and TxB2; assay: Carrageenan sponge implantation model, mediator production in exudate; format: in vivo, rat; settings: Experiment 2, 5% compound
Excerpt: (§1) The carrageenan sponge implantation model is primarily used to measure the effect of antiinflammatory agents on cell infiltration. An acute inflammatory response is stimulated by the implantation of a small sponge beneath the skin of rats. The sponge normally contains an inflammatory stimulus such as carrageenan and produces a response which is characterized by infiltration of cells and accumulation of fluid. The number of cells in the exudate can be conveniently measured in the exudate fluid.
(§2) The compound of Example I was evaluated for its local effect on cell migration and mediator production in this model. For comparison, indomethacin and BW755C were also evaluated after local application. Polyester sponges were soaked in solutions of 0.5% carrageenan (in normal saline) which also contained 1% or 5% wt/vol of the test compound. The impregnated sponge was inserted through a small incision on the dorsal surface of a lightly anesthetized rat into a subcutaneous pocket formed by blunt dissection. The incision was then closed. The control treatment consisted of a sponge soaked in 0.5% carrageenan in normal saline. Animals were sacrificed 6 hours after sponge implantation. Sponges are dissected out an placed in heparinized saline. The number of infiltrating cells were determined using a coulter counter. The inflammatory mediators prostaglandin E2, LTB4 and TxB2 in the exudate were determined by radioimmunoassay.

[5] = test system: cell infiltration (leukocytes); assay: Carrageenan sponge implantation model, cell infiltration; format: in vivo, rat
Excerpt: as §1, §2

[6] = PMNL, read-out: % I Human PMNL 5-LPO
[7] = Table I, R=H, phenylalkyl hydroxamic acids, read-out: IC50 5-LPO (Inhibition of Human Leukocyte 5-LPO)
[8] = FIG. 1 table, 95% confidence interval, read-out: IC50 Human PMNL 5-LPO
[9] = ring-substituted 9-phenylnonanohydroxamic acids, read-out: IC50 (5-lipoxygenase)
[10] = text comparison with prior-art compound, read-out: IC50 in the 5-lipoxygenase inhibition test

T3 sequence (P23219 24-599): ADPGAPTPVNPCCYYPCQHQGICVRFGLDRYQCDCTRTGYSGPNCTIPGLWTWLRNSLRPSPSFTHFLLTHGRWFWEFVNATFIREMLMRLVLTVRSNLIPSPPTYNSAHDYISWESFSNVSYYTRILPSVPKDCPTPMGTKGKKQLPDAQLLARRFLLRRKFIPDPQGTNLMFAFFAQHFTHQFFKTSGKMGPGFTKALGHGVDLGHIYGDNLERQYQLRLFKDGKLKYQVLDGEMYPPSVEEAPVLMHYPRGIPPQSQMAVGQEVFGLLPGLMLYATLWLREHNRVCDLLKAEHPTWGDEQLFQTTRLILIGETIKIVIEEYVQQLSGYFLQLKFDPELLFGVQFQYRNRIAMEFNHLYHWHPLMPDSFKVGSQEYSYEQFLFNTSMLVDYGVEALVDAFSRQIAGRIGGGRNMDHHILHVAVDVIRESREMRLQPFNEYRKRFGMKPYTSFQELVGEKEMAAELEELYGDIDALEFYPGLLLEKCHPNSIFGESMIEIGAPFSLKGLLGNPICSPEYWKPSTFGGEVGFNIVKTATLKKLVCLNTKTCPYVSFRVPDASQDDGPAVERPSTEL

Structure (SMILES): O=C(CCCc1ccccc1)NO [BMY30077]
- inhibition at 100 µM [1, 6]: 11%
- IC50 [1, 7]: > 100 µM

Structure (SMILES): O=C(CCCCc1ccccc1)NO [BMY30083]
- inhibition at 100 µM [1, 6]: 22%
- IC50 [1, 7]: > 100 µM

Structure (SMILES): O=C(CCCCCCCCCCCCCCc1ccccc1)NO [BMY30152]
- inhibition at 50 µM ([1]; PMNL, @ 50 μM, read-out: % I Human PMNL 5-LPO): 7.5%
- IC50 [1, 7]: > 100 µM

Structure (SMILES): CN(O)C(=O)CCCCCCCc1ccccc1 [BMY30208, N-methyl-8-phenyloctanohydroxamic acid]
- IC50 [2]: 3.6 µM
- IC50 [3]: 2.9 µM
- IC50 [1, 8]: 0.1 µM

Structure (SMILES): CC(C)N(O)C(=O)CCCCCCCc1ccccc1 [BMY30214]
- IC50 [2]: 4.5 µM
- IC50 [3]: 4.2 µM
- IC50 [1, 8]: 0.16 µM

Structure (SMILES): CN(O)C(=O)CCCCCCCCCc1ccccc1 [BMY30217]
- IC50 [2]: 5.5 µM
- IC50 [3]: 4.6 µM
- IC50 [1, 8]: 0.09 µM

Structure (SMILES): CC(C)N(O)C(=O)CCCCCCCCCc1ccccc1 [BMY30218]
- IC50 [2]: 26.7 µM
- IC50 [3]: 7.6 µM
- IC50 [1, 8]: 0.14 µM

Structure (SMILES): CC(C)N(O)C(=O)CCCCCCc1ccccc1 [BMY30222]
- IC50 [2]: 12.5 µM
- IC50 [3]: 30.9 µM
- IC50 [1, 8]: 0.07 µM

Structure (SMILES): CN(O)C(=O)CCCCCCCCc1ccccc1 [BMY30223]
- IC50 [2]: 2.5 µM
- IC50 [3]: 2.1 µM
- IC50 [1, 8]: 0.17 µM

Structure (SMILES): CC(C)N(O)C(=O)CCCCCCCCc1ccccc1 [BMY30224]
- IC50 [2]: 13.9 µM
- IC50 [3]: 18.4 µM
- IC50 [1, 8]: 0.18 µM

Structure (SMILES): CC(C)N(O)C(=O)CCCCc1ccccc1 [BMY30226]
- inhibition at 100 µM [2]: 59%
- inhibition at 100 µM [3]: 25%
- IC50 [1, 8]: 0.9 µM

Structure (SMILES): CC(C)N(O)C(=O)CCCc1ccccc1 [BMY30227]
- inhibition at 100 µM [2]: 31%
- inhibition at 100 µM [3]: 7%
- IC50 [1, 8]: 0.7 µM

Structure (SMILES): CN(O)C(=O)CCCCCCCCCCCCCCc1ccccc1 [BMY30228]
- inhibition at 100 µM [2]: 17%
- % I Human Platelet CO [3]: inactive
- IC50 [1, 8]: 25.3 µM

Structure (SMILES): CCCCOc1ccc(CCCCCCCCC(=O)NO)cc1 [BMY 30239, 9(4-Butoxyphenyl)nonanohydroxamic acid]
- % Inhibition at 100 μm [1]: 56.0%

Structure (SMILES): NC1=NN(c2cccc(C(F)(F)F)c2)CC1 [BW755C, reference compound]
- TXB2 ([4]; control 19.2 ± 1.9): 0.8 ± 0.3 ng/ml Exudate
- PGE2 ([4]; control 137.6 ± 13.1): 3.0 ± 1.0 ng/ml Exudate
- Leukocyte No. ([5]; Experiment 2, 0.5% carrageenan plus 5% compound in sponge, 6 h, control 33.0 ± 3.8): 6.9 ± 1.7 cells/ml (× 10^-6)
- reduction of cell infiltration ([5]; dosed at 5%): 79%

Other lines, results leading:

- inhibition at 100 µM [2]: 10%
- % I Human Platelet CO [3]: inactive
- IC50 [1, 8]: 80 µM
Structure (SMILES): CC(C)N(O)C(=O)CCCCCCCCCCCCCCc1ccccc1 [BMY30229]

- IC50 [1, 9]: 2.4 µM
Structure (SMILES): COc1ccc(CCCCCCCCC(=O)NO)cc1 [BMY 30173, 9(4-Methoxyphenyl)nonanohydroxamic acid]

- IC50 [1, 9]: 6.1 µM
Structure (SMILES): O=C(CCCCCCCCc1ccc(Cl)cc1)NO [BMY 30174, 9(4-chlorophenyl)nonanohydroxamic acid]

- IC50 [1, 9]: 5.4 µM
Structure (SMILES): COc1cccc(CCCCCCCCC(=O)NO)c1 [BMY 30181, 9(3-methoxyphenyl)nonanohydroxamic acid]

- IC50 [1, 9]: 6.2 µM
Structure (SMILES): Cc1cccc(CCCCCCCCC(=O)NO)c1 [BMY 30182, 9(3-methylphenyl)nonanohydroxamic acid]

- % Inhibition at 100 μm [1]: 0%
Structure (SMILES): CCCCCCOc1ccc(CCCCCCCCC(=O)NO)cc1 [BMY 30230, 9(4-Hexyloxyphenyl)nonanohydroxamic acid]

- % Inhibition at 100 μm [1]: 45.8%
Structure (SMILES): CCCCCCOc1ccc(CCCCCCCCC(=O)N(O)C(C)C)cc1 [BMY 30240, N-isopropyl 9(4-hexyloxyphenyl)nonanohydroxamic acid]

- % Inhibition at 100 μm [1]: 95.9%
Structure (SMILES): CCCCCCOc1ccc(CCCCCCCCC(=O)N(C)O)cc1 [BMY 30241, N-Methyl 9(4-Hexyloxyphenyl)nonanohydroxamic acid]

- IC50 [1, 10]: 20.9 µM
Structure (SMILES): O=C(CCCCCCc1ccccc1)NO [Compound 2a]

- inhibition at 100 µM [2]: 53%
- IC50 [3]: 26 µM
- IC50 [1, 8]: 12.2 µM
Structure (SMILES): O=C(CCCCCCCc1ccccc1)NO [Compound 2b]

- inhibition at 100 µM [2]: 10%
- IC50 [3]: 32 µM
- IC50 [1, 8]: 11.6 µM
Structure (SMILES): O=C(CCCCCCCCCc1ccccc1)NO [Compound 2c]

- IC50 [1, 7]: 11 µM
Structure (SMILES): O=C(CCCCCCCCCCc1ccccc1)NO [Compound 2d]

- IC50 [1, 7]: 10.3 µM
Structure (SMILES): O=C(CCCCCCCCCCCc1ccccc1)NO [Compound 2e]

- IC50 [1, 7]: > 100 µM
Structure (SMILES): O=C(NO)c1ccccc1 [n=0, reference compound]

- IC50 [1, 7]: > 100 µM
Structure (SMILES): O=C(Cc1ccccc1)NO [n=1, reference compound]

- IC50 [1, 7]: > 100 µM
Structure (SMILES): O=C(CCc1ccccc1)NO [n=2, reference compound]

- IC50 [1, 7]: > 50 µM
Structure (SMILES): O=C(CCCCCCCCCCCCc1ccccc1)NO [n=12, reference compound]

- IC50 [1, 10]: > 100 µM
Structure (SMILES): O=C(CCCCCc1ccccc1)NO [reference compound]

Reference: US4861798A, “Lipoxygenase inhibitory compounds” (Bristol-Myers Company, priority 1987, dated 1989)
